pIC50: −log10 of the molar value.
What was measured:
[1] = system: GRP78, CHOP, PARP, caspase-3; test: Western blot on blast cells from B-ALL patients; format: cell-based, human; details: CP 2.5 μM, 12 h
Procedure: FIGURE 6 CP effects on B-ALL primary cultures (A) Blast cells from six B-ALL patients were incubated for 24 h with different concentrations of CP. For the sake of comparison CD19^+ cells from peripheral blood of healthy donors, and PBMC were also incubated with CP in the presence or absence of PHA. Cell viability were assayed by MTT analysis. Data are represented as mean ± S.E.M of four independent experiments. (B) Bone marrow cells from healthy donors were treated for 24 h with CP (2.5 μM and 5 μM). Cell viability was evaluated on the whole population by flow cytometry after staining the cells with Annexin-V-FITC and PI. are represented as mean ± S.E.M of 3 independent experiments. (C) Western Blot analysis of GRP78 and CHOP expression, PARP cleavage and caspase-3 activation, on protein extracts of blast cells from B-ALL patients treated with CP (2.5 μM) for 12 h.
Cells were treated with CP and, after different times, were collected, centrifuged and washed with ice cold phosphate-buffered saline (PBS). The pellet was then resuspended in lysis buffer as described. The protein concentration in the supernatant was determined using the BCA protein assay (Pierce, Italy). Equal amounts of protein (10 μg) were resolved using SDS-PAGE gel electrophoresis (Criterion precast Tris-HCl gel, BioRad, Italy) and transferred to PVDF Hybond-p membranes (GE Healthcare, Italy). […]

[2] = system: RS4;11 and SEM cells; test: Cytochrome c release by flow cytometry; format: cell-based, human; details: CP 2.5 μM, 24 h
Procedure: To determine whether the apoptotic stimuli involved mitochondria alteration, we examined the mitochondrial transmembrane potential (ΔΨmt) by means of the fluorescence dye JC-1.
FIGURE 2 CP induces caspase-dependent apoptosis without mitochondria involvement (A) Assessment of mitochondrial membrane potential (ΔΨmt) after treatment of RS4;11 and SEM cells with CP (2.5 μM) for the indicated times. Cells were stained with the fluorescent probe JC-1. Data are represented as mean ± S.E.M. of three independent experiments. (B) Flow cytometric analysis of RS4;11 and SEM cells treated with CP (2.5 μM) for 24 h showing cytochrome c labeled with a monoclonal antibody conjugated to FITC. Representative image of three experiments with similar results. (C) Cells were incubated with CP 2.5 μM and 5 μM in the presence or absence of the pan-caspase inhibitor z-VAD.fmk (100 μM). Cell viability was determined after 48 h by MTT assay. […]
The mitochondrial membrane potential was measured with the lipophilic cation 5,5',6,6'-tetrachlo-1,1',3,3'-tetraethylbenzimidazolyl-carbocyanine (JC-1) (Life Technologies, Italy) as previously described. Cytochrome c release was analyzed by flow cytometry using a commercial kit (Innocyte flow cytometric cytochrome c release kit, Calbiochem, Italy) following the manufacturer's instructions.

[3] = system: 26S proteasome semipurified from RS4;11 cells, peptidyl glutamyl peptide hydrolyzing (PGPH) activity; test: Proteasome activity on semipurified cell extract (fluorogenic substrate); format: biochemical, human; details: RS4;11 extract, 60 min at 37 °C, cell-free
Text: (§1) The 26S proteasome is a multicatalytic protease responsible for the regulated intracellular protein degradation. Its function is mediated by three main catalytic activities i) chymotrypsin like (CT) ii) Trypsin-like (T) and iii) peptidyl glutamyl peptide hydrolyzing (PGPH). To evaluate the effect of CP on the proteasome activity in leukemia cells, we tested increasing concentrations of the compound on semipurified 26S proteasome extract from RS4;11 and SEM cells, and measured the functioning of each individual proteolytic activity under cell-free condition.
(§2) FIGURE 3 CP treatment affects Ubiquitin Proteasome System (UPS) 26S proteasome (100 μg) semipurified from (A) SEM and (B) RS4;11 cells was incubated for 60 min at 37 °C with CP at different concentrations. Chymotrypsin (CT), trypsin (T) and peptidyl glutamyl peptide hydrolyzing (PGPH) catalytic activity were measured fluorimetrically (excitation 370, nm emission 460) by following the release of free AMC from synthetic substrates N-Suc-Leu-Leu-Val-Tyr-AMC, Boc-Gln-Ala-Arg-AMC and Z-Leu-Leu-Glu-AMC, specific for CT, T and PGPH activity, respectively. (C) Cells were incubated with CP 2.5 μM for the indicated times and then western blot analyses were performed to evaluate Ubiquitin accumulation.
(§3) RS4;11 and SEM cells were homogenized in a lysis buffer (50 mM Tris-HCl, pH 7.5, 250 mM sucrose, 5 mM MgCl2, 1 mM DTT, 0.5 mM EDTA) and ultracentrifuged for 2 h at 300,000 g. Total protein content was estimated with BioRad protein assay (BioRad) and 100 μg of protein aliquots were incubated for 60 min at 37°C with CP at different concentrations. Afterwards, fluorogenic proteasome substrates (N-Suc-Leu-Leu-Val-Tyr-7-amido-4-methylcoumarin (AMC) for chymotripsin (CT), Boc-Gln-Ala-Arg-AMC for tripsin (T) and Z-Leu-Leu-Glu-AMC for peptidyl glutamyl peptide hydrolyzing (PGPH) were added and the substrate hydrolysis was measured after 30 min by monitoring the release of Tyr-7-amido-4-methylcoumarin (AMC) using a Varian Cary Eclipse (Varian) spectrofluorometer (excitation at 370 nm, emission at 460 nm).

[4] = system: 26S proteasome semipurified from SEM cells, Trypsin-like (T) activity; test: as above; format: biochemical, human; details: 60 min at 37 °C, cell-free
Text: as §1, §2, §3

[5] = system: 26S proteasome semipurified from RS4;11 cells, chymotrypsin like (CT) activity; test: as above; format: biochemical, human; details: RS4;11 extract, 60 min at 37 °C, cell-free
Text: as §1, §2, §3

[6] = system: 26S proteasome semipurified from SEM cells, peptidyl glutamyl peptide hydrolyzing (PGPH) activity; test: as above; format: biochemical, human; details: 60 min at 37 °C, cell-free
Text: as §1, §2, §3

[7] = system: 26S proteasome semipurified from SEM cells, chymotrypsin like (CT) activity; test: as above; format: biochemical, human; details: 60 min at 37 °C, cell-free
Text: as §1, §2, §3

[8] = system: 26S proteasome semipurified from RS4;11 cells, Trypsin-like (T) activity; test: as above; format: biochemical, human; details: RS4;11 extract, 60 min at 37 °C, cell-free
Text: as §1, §2, §3

With `F[P-](F)(F)(F)(F)F.OCP(CO)CO.OCP(CO)CO.OCP(CO)CO.OCP(CO)CO.[Cu+]` [CP, [Cu(thp)4][PF6]] as the molecule, how does the “caspase-3 activation and PARP cleavage” value ([1]; patient cells) read?
Its value is “induced caspase-3 activation and PARP cleavage”.

And the “GRP-78 and CHOP expression” value ([1]; primary cultures)?
The value was “significant increase in the expression of both these markers”.

And the cytochrome c release [2]?
The cytochrome c release was “did not reveal cytochrome c release”.

What about the pIC50 [3] of the same molecule?
The pIC50 was roughly 5.00.

And the pIC50 [4]?
The pIC50 was roughly 4.92.

What about the pIC50 [5] of the same molecule?
The pIC50 was roughly 4.74.

What about the pIC50 [6] of the same molecule?
Its pIC50 is roughly 4.80.

And the pIC50 [7]?
The pIC50 was roughly 4.82.

What about the pIC50 [8] of the same molecule?
The pIC50 was roughly 4.96.
